Measured values: patent US20100016275A1, “NOVEL COMPOUND 395” (priority 2008, published 2010)

Legend:
[1] = Bioavailability (F) in the rat; format: in vivo; settings: plasma, 3 mg/kg; male rat, oral vs iv AUC, dose normalised
Text: Bioavailability (F) in the Rat
This describes the methods used to obtain in vivo pharmacokinetic parameters in the male rat. It is applicable for use with any compound but may need modification based on such parameters as solubility, assay sensitivity, anticipated clearance and half-life, when the default formulation, dose level or sampling intervals may be inappropriate. The method described here represents a standard approach from which justified and documented modifications can be made. This method also allows for single compounds or mixtures (cassettes) to be administered.
A standard dose solution of 1 mg·mL^−1 was prepared. The recommended dose vehicle (if the compound was not sufficiently soluble in isotonic saline) was 50% PEG 400:50% sterile water. The required mass of compound was dissolved in the PEG400 before addition of the water. […]
The concentration of the analyte(s) were determined in plasma quantitative by mass spectrometry.
Pharmacokinetic data analysis and tabulation was achieved using WinNonlin and Excel. […] Bioavailability (F) was calculated from the ratio of the iv and oral AUC (the integral of the plasma concentration time curve) once dose normalised.

[2] = tested on: human hepatocytes; test: Human hepatic intrinsic clearance (CLint) assay in human hepatocytes; format: in vitro ADME; settings: human hepatocytes, protein free suspension buffer, pH 7.4, 37° C.
Text: The hepatic metabolic component of human clearance is predicted from scaled in vitro intrinsic clearance (CLint) data from human hepatocytes (see Chem Biol Interact. 2007, 168(1), 2-15) and from the extent of human blood binding, primarily due to plasma protein binding. The well stirred model of the liver is a model for predicting blood clearance in the liver from intrinsic clearance (CLint) determined using hepatocytes. (see Drug Metab Dispos. 2005, 33(9), 1304-11) The model is usually written as:
Human Hepatic Intrinsic Clearance (CLint) Assay
For the majority of drugs, a large component of their plasma clearance is contributed by hepatic metabolism. Intrinsic clearance (CLint) is a measure of the potential of a compound to undergo metabolism and can be related to hepatic clearance in vivo from a consideration of plasma protein binding and liver blood flow. Therefore, CLint may be used as an index of the relative metabolic stability of compounds within a project and compared with other external probe substrates. Furthermore, the measurement of CLint in vitro within a research project, where hepatic metabolic clearance is known to be an issue, may be a useful means of understanding the different pharmacokinetic behaviour of the compounds in vivo.
This following description outlines a method for estimating intrinsic clearance (CLint) from human hepatocyte incubations using suspension buffer containing no HSA (human serum albumin) and maintaining physiological conditions of pH 7.4.
Hepatocytes were prepared by a two-step in situ collagenase perfusion method of a portion of the human liver, suspended in protein free buffer (see below) and stored on ice, prior to incubation.
This method is based on the procedure of Seglen (Preparation of rat liver cells. I. Effect of Ca^2+ on enzymatic dispersion of isolated, perfused liver. Exptl. Cell Res., 1972, 74, p450 and preparation of isolated rat liver cells. Methods Cell Biol., 1976, 13, p 29) which itself was developed from the one step procedure of Berry and Friend (High-yield preparation of isolated rat liver parenchymal cells. J. Cell Biol., 1969, 43, p 506).
Suspension medium: 2.34 g Na HEPES, 2.0 g HSA fraction V, 0.4 g D-fructose, DMEM (1 L powder equivalent, Sigma; w/1 g.1^−1 glucose, w/Na pyruvate, w/o NaHCO3, w/o phenol red), made up to 1 L with Milli-Q water, pH to 7.4 with 1 M HCl. (Protein free suspension buffer is made omitting the 2.0 g HSA fraction V)
The capsule of a liver which has been perfused with digestion medium was cut open and the cells gently teased out into the medium. The cells were then passed through a mesh (approximately 250 μM) into a beaker containing 50 ml suspension medium. The mesh was rinsed through into the beaker with further suspension buffer to a final volume of 100 ml. The suspension was divided between two plastic 50 mL centrifuge tubes (pre-cooled on ice) and centrifuged at 50×g for 2 min at 4° C. The supernatants were decanted and the pellets re-suspended in protein free suspension buffer to the original volume. The centrifugation step was repeated and each pellet re-suspended in approximately 10 ml protein free suspension buffer. The suspensions were combined and the volume made up to 50 mL with protein free suspension buffer.
An aliquot of cell suspension (0.2 mL) was diluted with 0.2 ml protein free suspension buffer. To the diluted cells was added 0.2 mL trypan blue solution (0.4% w/v) followed by gentle mixing. After 1 min, a pasteur pipette was used to withdraw a sample and fill an Improved Neubauer Counting Chamber by capillary action. The cells were then counted (central square only) using an inverted microscope, viable cells being able to exclude the dye and non-viable cells being stained. The percentage of viable cells in the preparation was calculated thus: […]

Cc1cccc(CSc2nc(N[C@H](C)CO)cc(NS(C)(=O)=O)n2)c1F [Example 39]
bioavailability [1]: 44%

Cc1ccc(CSc2nc(N[C@H](C)CO)cc(NS(=O)(=O)N3CCC3)n2)c(F)c1C [Example 42]
Human hepatocyte Intrinsic-clearance assay CLint [2]: 17 μL/min/10^6 cells

C[C@@H](Nc1cc(NS(=O)(=O)N2CCC2)nc(SCc2cccc(F)c2F)n1)[C@@H](O)CO [Example 1, N-(2-[(2,3-difluorobenzyl)thio]-6-{[(1R,2R)-2,3-dihydroxy-1-methylpropyl]amino}pyrimidin-4-yl)azetidine-1-sulfonamide]
bioavailability [1]: 49%
melting point: 116 to 116.5 °C
